Measurements: US10703765B2 (priority 2014, dated 2020)
Counter-ions that a name gives are not always drawn. Like-named read-outs stand apart in the source and are kept apart here.

Target: human σ1 receptor (Homo sapiens, UniProt Q99720)
Test: biochemical
Format: binding
Design: μ and σ1 dual binding: key to the marks not given beside the values
[1] = read-out: μ and σ1 dual binding
[2] = combined class from Ki-σ1 (human σ1 receptor, A1) and Ki-μ (human μ-opioid receptor, A2) radioligand binding

Sequence of human σ1 receptor (Q99720 whole entry): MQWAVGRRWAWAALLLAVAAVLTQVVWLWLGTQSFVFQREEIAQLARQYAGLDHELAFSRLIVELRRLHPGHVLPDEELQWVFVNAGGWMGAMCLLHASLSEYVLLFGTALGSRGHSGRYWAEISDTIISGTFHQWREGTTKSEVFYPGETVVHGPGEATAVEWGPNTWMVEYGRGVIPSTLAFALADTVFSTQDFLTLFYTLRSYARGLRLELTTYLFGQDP

CC1OC2(CCN(CCc3ccc(Cl)cn3)CC2)CN(c2ccccc2)C1=O (stereo not shown) [Example 38, 9-(2-(5-chloropypridin-2-yl)ethyl)-2-methyl-4-phenyl-1-oxa-4,9-diazaspiro[5.5]undecan-3-one hydrochloride]
Ki: < 0.5 µM

CC(C)C1OC2(CCN(CCc3cccnc3[N+](=O)[O-])CC2)CN(c2ccccc2F)C1=O (stereo not shown) [Example 39, 4-(2-fluorophenyl)-2-isopropyl-9-(2-(2-nitropyridin-3-yl)ethyl)-1-oxa-4,9-diazaspiro[5.5]undecan-3-one]
Ki [1]: > 0.5 µM

CC1OC2(CCN(CCc3ccnc(C(F)(F)F)c3)CC2)CN(c2ccccc2)C1=O.Cl (stereo not shown) [Example 40, 2-methyl-4-phenyl-9-(2-(2-(trifluoromethyl)pyridin-4-yl)ethyl)-1-oxa-4,9-diazaspiro[5.5]undecan-3-one hydrochloride]
μ and σ1 dual binding: ++

CC1OC2(CCN(CCc3cc(C#N)ccn3)CC2)CN(c2ccccc2)C1=O (stereo not shown) [Example 41, 2-(2-(2-methyl-3-oxo-4-phenyl-1-oxa-4,9-diazaspiro[5.5]undecan-9-yl)ethyl)isonicotinonitrile]
μ and σ1 dual binding [2]: ++

CC1OC2(CCN(CCc3cccc(N)n3)CC2)CN(c2cnccc2C(F)(F)F)C1=O (stereo not shown) [Example 42, 9-(2-(6-aminopyridin-2-yl)ethyl)-2-methyl-4-(4-(trifluoromethyl)pyridin-3-yl)-1-oxa-4,9-diazaspiro[5.5]undecan-3-one hydrochloride]
Ki [1]: > 0.5 µM

CC1OC2(CCN(CCc3cccnc3[N+](=O)[O-])CC2)CN(c2cnccc2C(F)(F)F)C1=O (stereo not shown) [Example 43, 2-methyl-9-(2-(2-nitropyridin-3-yl)ethyl)-4-(4-(trifluoromethyl)pyridin-3-yl)-1-oxa-4,9-diazasprio[5.5]undecan-3-one]
Ki [1]: > 0.5 µM

CC1OC2(CCN(CCc3ncccc3Cl)CC2)CN(c2cnccc2C(F)(F)F)C1=O.Cl (stereo not shown) [Example 44, 9-(2-(3-chloropyridin-2-yl)ethyl)-2-methyl-4-(4-(trifluoromethyl)pyridin-3-yl)-1-oxa-4,9-diazaspiro[5.5]undecan-3-one hydrochloride]
μ and σ1 dual binding: ++

CC1OC2(CCN(CCc3ncccc3Cl)CC2)CN(Cc2ccc(C(F)(F)F)cn2)C1=O (stereo not shown) [Example 45, 9-(2-(3-chloropyridin-2-yl)ethyl)-2-methyl-4-((5-(trifluoromethyl)pyridin-2-yl)methyl)-1-oxa-4,9-diazaspiro[5.5]undecan-3-one hydrochloride]
Ki [1]: < 0.1 µM

CC1OC2(CCN(CCc3ncccc3Cl)CC2)CN(Cc2ccc(F)cn2)C1=O (stereo not shown) [Example 46, 9-(2-(3-chloropyridin-2-yl)ethyl)-4-((5-fluoropyridin-2-yl)methyl)-2-methyl-1-oxa-4,9-diazaspiro[5.5]undecan-3-one hydrochloride]
Ki [1]: < 0.5 µM

CC1OC2(CCN(CCc3ncccc3F)CC2)CN(Cc2ccc(F)cn2)C1=O (stereo not shown) [Example 47, 9-(2-(3-fluoropyridin-2-yl)ethyl)-4-((5-fluoropyridin-2-yl)methyl)-2-methyl-1-oxa-4,9-diazaspiro[5.5]undecan-3-one hydrochloride]
Ki [1]: < 0.5 µM

CC1OC2(CCN(CCc3ncccc3F)CC2)CN(c2cccnc2C(F)(F)F)C1=O (stereo not shown) [Example 48, 9-(2-(3-fluoropyridin-2-yl)ethyl)-2-methyl-4-(2-(trifluoromethyl)pyridin-3-yl)-1-oxa-4,9-diazaspiro[5.5]undecan-3-one]
Ki [1]: > 0.5 µM

CC1OC2(CCN(CCc3cccc(C(F)(F)F)n3)CC2)CN(Cc2ccc(F)cn2)C1=O.Cl (stereo not shown) [Example 49, 4-((5-fluoropyridin-2-yl)methyl)-2-methyl-9-(2-(6-(trifluoromethyl)pyridin-2-yl)ethyl)-1-oxa-4,9-diazaspiro[5.5]undecan-3-one hydrochloride]
μ and σ1 dual binding: ++

CC1OC2(CCN(CCc3ccncc3Cl)CC2)CN(c2ccccc2)C1=O (stereo not shown) [Example 50, 9-(2-(3-chloropyridin-4-yl)ethyl)-2-methyl-4-phenyl-1-oxa-4,9-diazaspiro[5.5]undecan-3-one hydrochloride]
Ki: < 0.5 µM

COc1ccc(CCN2CCC3(CC2)CN(c2ccccc2)C(=O)CO3)cc1 [Example 52, 9-(4-methoxyphenethyl)-4-phenyl-1-oxa-4,9-diazaspiro[5.5]undecan-3-one]
μ and σ1 dual binding [2]: ++

CC1OC2(CCN(CCc3cccs3)CC2)CN(c2ccccc2)C1=O (stereo not shown) [Example 53, 2-methyl-4-phenyl-9-(2-(thiophen-2-yl)ethyl)-1-oxa-4,9-diazaspiro[5.5]undecan-3-one]
Ki: < 0.1 µM

CC1OC2(CCN(CCc3cccc(F)c3)CC2)CN(c2ccccc2)C1=O (stereo not shown) [Example 54, 9-(3-fluorophenethyl)-2-methyl-4-phenyl-1-oxa-4,9-diazaspiro[5.5]undecan-3-one hydrochloride]
Ki [1]: < 0.1 µM

CC1OC2(CCN(CCc3ccc(F)cc3)CC2)CN(c2ccccc2)C1=O (stereo not shown) [Example 55, 9-(4-fluorophenethyl)-2-methyl-4-phenyl-1-oxa-4,9-diazaspiro[5.5]undecan-3-one hydrochloride]
Ki [1]: < 0.1 µM

CC1OC2(CCN(CCn3cccn3)CC2)CN(c2ccccc2)C1=O (stereo not shown) [Example 56]
μ and σ1 dual binding [2]: ++

COc1ccccc1CCN1CCC2(CC1)CN(c1ccccc1)C(=O)C(C)O2 (stereo not shown) [Example 57, 9-(2-methoxyphenethyl)-2-methyl-4-phenyl-1-oxa-4,9-diazaspiro[5.5]undecan-3-one hydrochloride]
Ki: < 0.1 µM

CC1OC2(CCN(CCc3ccccn3)CC2)CN(c2ccccc2)C1=O (stereo not shown) [Example 58, 2-methyl-4-phenyl-9-(2-(pyridin-2-yl)ethyl)-1-oxa-4,9-diazaspiro[5.5]undecan-3-one]
Ki [1]: < 0.1 µM

CC1OC2(CCN(CC3CCOCC3)CC2)CN(c2ccccc2)C1=O.Cl (stereo not shown) [Example 59, 2-methyl-4-phenyl-9-((tetrahydro-2H-pyran-4-yl)methyl)-1-oxa-4,9-diazaspiro[5.5]undecan-3-one hydrchloride]
μ and σ1 dual binding: ++

CC1OC2(CCN(CCCc3ccccc3)CC2)CN(c2ccccc2)C1=O (stereo not shown) [Example 60, 2-methyl-4-phenyl-9-(3-phenylpropyl)-1-oxa-4,9-diazaspiro[5.5]undecan-3-one hydrochloride]
Ki: < 0.5 µM

Cc1ncsc1CCN1CCC2(CC1)CN(c1ccccc1)C(=O)C(C)O2 (stereo not shown) [Example 61, 2-methyl-9-(2-(4-methylthiazol-5-yl)ethyl)-4-phenyl-1-oxa-4,9-diazaspiro[5.5]undecan-3-one hydrochloride]
Ki: < 0.5 µM

CC1OC2(CCN(CCn3ccc4ccccc43)CC2)CN(c2ccccc2)C1=O (stereo not shown) [Example 62, 9-(2-(1H-indol-1-yl)ethyl)-2-methyl-4-phenyl-1-oxa-4,9-diazaspiro[5.5]undecan-3-one hydrochloride]
Ki: < 0.1 µM

COC(=O)CCN1CCC2(CC1)CN(c1ccccc1)C(=O)C(C)O2 (stereo not shown) [Example 64, methyl 3-(2-methyl-3-oxo-4-phenyl-1-oxa-4,9-diazaspiro[5.5]undecan-9-yl)propanoate]
Ki [1]: > 0.5 µM

CC1OC2(CCN(CCN3CCOCC3)CC2)CN(c2ccccc2)C1=O (stereo not shown) [Example 65, 2-methyl-9-(2-morpholinoethyl)-4-phenyl-1-oxa-4,9-diazaspiro[5.5]undecan-3-one]
Ki [1]: > 0.5 µM

CC1OC2(CCN(CCc3ccc([N+](=O)[O-])cc3)CC2)CN(c2ccccc2)C1=O (stereo not shown) [Example 66, 2-methyl-9-(4-nitrophenethyl)-4-phenyl-1-oxa-4,9-diazaspiro[5.5]undecan-3-one]
Ki [1]: > 0.5 µM

CC1OC2(CCN(CCc3cccc([N+](=O)[O-])c3)CC2)CN(c2ccccc2)C1=O (stereo not shown) [Example 67, 2-methyl-9-(3-nitrophenethyl)-4-phenyl-1-oxa-4,9-diazaspiro[5.5]undecan-3-one]
Ki [1]: > 0.5 µM

CC1OC2(CCN(CCc3ccccc3[N+](=O)[O-])CC2)CN(c2ccccc2)C1=O (stereo not shown) [Example 68, 2-methyl-9-(2-nitrophenethyl)-4-phenyl-1-oxa-4,9-diazapspiro[5.5]undecan-3-one]
Ki [1]: > 0.5 µM

CC1OC2(CCN(CCn3ccc4cccnc43)CC2)CN(c2ccccc2)C1=O.Cl (stereo not shown) [Example 69, 9-(2-(1H-pyrrolo[2,3-b]pyridin-1-yl)ethyl)-2-methyl-4-phenyl-1-oxa-4,9-diazaspiro[5.5]undecan-3-one hydrochloride]
μ and σ1 dual binding: ++

COC(=O)c1ccc(CCN2CCC3(CC2)CN(c2ccccc2)C(=O)C(C)O3)cc1.Cl (stereo not shown) [Example 70, methyl 4-(2-(2-methyl-3-oxo-4-phenyl-1-oxa-4,9-diazaspiro[5.5]undecan-9-yl)ethyl)benzoate hydrochloride]
μ and σ1 dual binding: ++

CC1OC2(CCN(CC(=O)Nc3ccccc3)CC2)CN(c2ccccc2)C1=O (stereo not shown) [Example 71, 2-(2-methyl-3-oxo-4-phenyl-1-oxa-4,9-diazaspiro[5.5]undecan-9-yl)-N-phenylacetamide]
Ki [1]: > 0.5 µM

CC1OC2(CCN(CCOc3ccccc3)CC2)CN(c2ccccc2)C1=O.Cl (stereo not shown) [Example 72, 2-methyl-9-(2-phenoxyethyl)-4-phenyl-1-oxa-4,9-diazaspiro[5.5]undecan-3-one hydrochloride]
μ and σ1 dual binding: ++

CC1OC2(CCN(CCc3cccnc3)CC2)CN(c2ccccc2)C1=O (stereo not shown) [Example 73, 2-methyl-4-phenyl-9-(2-(pyridin-3-yl)ethyl)-1-oxa-4,9-diazaspiro[5.5]undecan-3-one]
Ki [1]: < 0.5 µM

CC1OC2(CCN(CCn3c(=O)oc4ccccc43)CC2)CN(c2ccccc2)C1=O (stereo not shown) [Example 74, 3-(2-(2-methyl-3-oxo-4-phenyl-1-oxa-4,9-diazaspiro[5.5]undecan-9-yl)ethyl)benzo[d]oxazol-2(3H)-one hydrochloride]
Ki [1]: < 0.5 µM

CC1OC2(CCN(CCc3cccc(C#N)c3)CC2)CN(c2ccccc2)C1=O (stereo not shown) [Example 75, 3-(2-(2-methyl-3-oxo-4-phenyl-1-oxa-4,9-diazaspiro[5.5]undecan-9-yl)ethyl)benzonitrile hydrochloride]
Ki [1]: < 0.1 µM

CC1OC2(CCN(CCc3ccc(C#N)cc3)CC2)CN(c2ccccc2)C1=O.Cl (stereo not shown) [Example 76, 4-(2-(2-methyl-3-oxo-4-phenyl-1-oxa-4,9-diazaspiro[5.5]undecan-9-yl)ethyl)benzonitrile hydrochloride]
μ and σ1 dual binding: ++
